Results on eleven molecules are retold here after patent US20060035925A1, “SUBSTITUTED 4H-CHROMENES AND ANALOGS AS ACTIVATORS OF CASPASES AND INDUCERS OF APOPTOSIS AND THE USE THEREOF” (Cytovia, Inc., priority 1999, published 2006).

Structures are written as SMILES.

The test system of experiment [1] is Human breast cancer cell line ZR-75-1. As to the kind of experiment: Caspase cascade activation assay (N-(Ac-DEVD)-N'-ethoxycarbonyl-R110 fluorogenic substrate) in ZR-75-1 cells. In kind it is cell-based. Particulars: ZR-75-1 cells; for EC50: Homo sapiens, ZR-75-1, 24 h, 24 h incubation, sigmoidal dose-response, read-out: Caspase potency EC50 (nM) ZR-75-1; for Caspase activity (Ratio) ZR-75-1: 24 h incubation with compound, ratio of net RFU (T=3 h) of test compound to control. The method, boiled down: (§1)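 Cells were exposed for 24 h at 37 °C to test compound at 0.016–1 μM final. Lysed with lysolecithin buffer (pH 7.2, DTT) containing 20 μM Ac-DEVD-R110 substrate, and fluorescence (ex 485/em 530 nm) read at 0 and 3 h at room temperature. EC50 from sigmoidal fit of net RFU ratio to control.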

Experiment [2] deals with Human breast cancer cell line T-47D. The experiment is described as follows: Caspase cascade activation assay (N-(Ac-DEVD)-N'-ethoxycarbonyl-R110 fluorogenic substrate) in T-47D cells. In kind it is cell-based. Conditions: for Caspase activity (Ratio) T-47D: 24 h incubation with compound, ratio of net RFU (T=3 h) of test compound to control; for EC50: Homo sapiens, T47D, 24 h, 24 h incubation, sigmoidal dose-response, read-out: Caspase potency EC50 (nM) T-47D. In short, it runs like this: as §1

As usually defined, the EC50 is the concentration needed to bring the measured effect to its halfway point. As to `N#CC1=C(N)OC2C(=CC=C3C=CN=C32)C1c1cccc(C#N)c1` (centres unmarked) [Example 53, 2-Amino-3-cyano-4-(3-cyano-phenyl)-4H-indolo[7,6-b]pyran], in experiment [1], the EC50 turned out to be 26.4 nM and the “Caspase activity (Ratio) ZR-75-1” value stood at 7.0. In addition, in experiment [2], the “Caspase activity (Ratio) T-47D” value is recorded as 10.1 and the EC50 is 79.7 nM.
`COc1ccc2c(c1)OC(N)=C(C#N)C2c1cc(F)cc(F)c1` (centres unmarked) [Example 2J, 2-Amino-3-cyano-7-methoxy-4-(3,5-difluorophenyl)-4H-chromene]: in experiment [1], the concentration giving a half-maximal response (EC50) turned out to be 21 nM and the “Caspase activity (Ratio) ZR-75-1” value was determined as 7.4. In experiment [2], the “Caspase activity (Ratio) T-47D” value amounted to 5.0 and the EC50 was 34 nM.
As for `CCNc1ccc2c(c1)OC(N)=C(C#N)C2c1cc(OC)c(OC)c(OC)c1` (centres unmarked) [Example 13, 2-Amino-3-cyano-7-ethylamino-4-(3,4,5-trimethoxyphenyl)-4H-chromene], in experiment [1], the EC50 was determined as 14 nM and the “Caspase activity (Ratio) ZR-75-1” value was 7.0. Moreover, in experiment [2], the “Caspase activity (Ratio) T-47D” value stood at 4.4 and the EC50 turned out to be 25 nM.
Taken in the same sequence, the figures for `N#CC1=C(N)Oc2cc(N)ccc2C1c1cc(Cl)cc(Cl)c1` (centres unmarked) [Example 2D, 2-Amino-3-cyano-7-amino-4-(3,5-dichlorophenyl)-4H-chromene] were 50 nM, 4.4, 4.4 and 78 nM.
As to `COc1cccc(C2C(C#N)=C(N)Oc3cc(N)ccc32)c1` (centres unmarked) [Example 21, 2,7-Diamino-3-cyano-4-(3-methoxyphenyl)-4H-chromene], in experiment [1], the EC50 is 562 nM and the “Caspase activity (Ratio) ZR-75-1” value was 9.2. In experiment [2], the “Caspase activity (Ratio) T-47D” value is 6.0 and the EC50 worked out at 697 nM.
As to `Cc1cncc(C2C3=CC=C4C=CN=C4C3OC(N)=C2C#N)n1` (centres unmarked) [Example 61, 2-Amino-3-cyano-4-(6-methyl-pyrazin-2-yl)-4H-indolo[7,6-b]pyran], in experiment [1], the EC50 amounted to 1630 nM and the “Caspase activity (Ratio) ZR-75-1” value is given as 7.0. In experiment [2], the “Caspase activity (Ratio) T-47D” value worked out at 4.1 and the EC50 stood at 2900 nM.
In the case of `COc1ccc2c(c1)OC(N)=C(C#N)C2c1ccccc1` (centres unmarked) [Example 26, 2-Amino-3-cyano-7-methoxy-4-phenyl-4H-chromene], in experiment [1], the EC50 was 82 nM and the “Caspase activity (Ratio) ZR-75-1” value is listed as 6.4. In experiment [2], the “Caspase activity (Ratio) T-47D” value was 3.5 and the EC50 amounted to 140 nM.
`N#CC1=C(N)OC2C(=CC=C3C=CN=C32)C1c1cncc(C#N)c1` (centres unmarked) [Example 60, 2-Amino-3-cyano-4-(5-cyano-pyridin-3-yl)-4H-indolo[7,6-b]pyran]: in experiment [1], the EC50 was determined as 57 nM and the “Caspase activity (Ratio) ZR-75-1” value is 5.5. In experiment [2], the “Caspase activity (Ratio) T-47D” value is recorded as 6.7 and the EC50 was found to be 388 nM.
For the molecule `N#CC1=C(N)Oc2cc(N)ccc2C1c1cccc([N+](=O)[O-])c1` (centres unmarked) [Example 25, 2,7-Diamino-3-cyano-4-(3-nitrophenyl)-4H-chromene], in experiment [1], the EC50 is 325 nM and the “Caspase activity (Ratio) ZR-75-1” value was found to be 9.7. Further, in experiment [2], the “Caspase activity (Ratio) T-47D” value was 6.1 and the EC50 was 463 nM.
As for `COc1cc(C2C3=CC=C4C=CN=C4C3OC(N)=C2C#N)cc(Br)c1OC` (centres unmarked) [Example 42, 2-Amino-3-cyano-4-(3-bromo-4,5-dimethoxyphenyl)-4H-indolo[7,6-b]pyran], in experiment [1], the EC50 was 25 nM and the “Caspase activity (Ratio) ZR-75-1” value was 13.1. Further, in experiment [2], the “Caspase activity (Ratio) T-47D” value is listed as 7.6 and the EC50 was found to be 30 nM.
Regarding `COc1cncc(C2C(C#N)=C(N)Oc3cc(N)ccc32)c1` (centres unmarked) [Example 39, 2,7-Diamino-3-cyano-4-(5-methoxy-3-pyridyl)-4H-chromene], in experiment [1], the EC50 is 177 nM and the “Caspase activity (Ratio) ZR-75-1” value is reported as 14. In experiment [2], the “Caspase activity (Ratio) T-47D” value is given as 8.4 and the concentration giving a half-maximal response (EC50) amounted to 283 nM.
